Here are results for 5 molecules from publication PMC3210601, “New Tetromycin Derivatives with Anti-Trypanosomal and Protease Inhibitory Activities” (Marine Drugs, 2011).

Data set [1] concerns Leishmania major promastigotes. In words: Anti-Leishmania Alamar Blue assay (promastigotes). The following applies: read-out: IC50 L. major. In general terms: Resazurin is reduced to fluorescent resorufin, in cell work by metabolically active cells.
Data set [2] can be described thus: Cytotoxicity Alamar Blue assay, 293T kidney epithelial cells. The settings on record: human.
The subject of data set [3] is Trypanosoma brucei subsp. brucei. Nature of the data set: Anti-Trypanosoma Alamar Blue assay (trypomastigotes, strain TC 221).
The next data set has as its target rhodesain (Trypanosoma brucei rhodesiense, UniProt Q95PM0). Nature of the data set: Fluorometric protease inhibition assay, rhodesain. The class given is biochemical, T. brucei rhodesiense. The settings on record: for Ki: read-out: RD Ki; for RD k2nd: time-dependent inhibition, k2nd = ki/Ki.
In a further data set the target is cathepsin B (Homo sapiens, UniProt P07858). In words: Fluorometric protease inhibition assay, cathepsin B. It is filed as biochemical, mammalian. The settings on record: for Ki: non-time dependent, Dixon equation, corrected to zero substrate, substrate 100 μM, pH 6.2, 25 °C, read-out: CB Ki.
The target in the next data set is falcipain-2 (Plasmodium falciparum, UniProt Q8I6U4). In words: Fluorometric protease inhibition assay, falcipain-2. It is filed as biochemical, P. falciparum. The settings on record: for Ki: read-out: FP Ki; for FP k2nd: time-dependent inhibition, k2nd = ki/Ki.
Chain of falcipain-2 (Q8I6U4 244-484): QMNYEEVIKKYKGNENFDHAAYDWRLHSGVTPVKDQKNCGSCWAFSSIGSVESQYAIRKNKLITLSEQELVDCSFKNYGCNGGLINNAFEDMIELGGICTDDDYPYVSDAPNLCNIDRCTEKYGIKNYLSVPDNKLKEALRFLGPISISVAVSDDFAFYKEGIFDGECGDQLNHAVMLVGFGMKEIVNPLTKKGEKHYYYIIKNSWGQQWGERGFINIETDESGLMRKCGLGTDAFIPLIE
Another data set addresses cathepsin L (Homo sapiens, UniProt P07711). In words: Fluorometric protease inhibition assay, cathepsin L. It is filed as biochemical, mammalian. The settings on record: for Ki: read-out: CL Ki; for CL k2nd: time-dependent inhibition, k2nd = ki/Ki.
For the next data set, the target named is SARS-CoV PL^pro (Severe acute respiratory syndrome coronavirus, UniProt P0C6X7). Nature of the data set: biochemical.
The conditions of data set [4]: mouse.
[5] abbreviates: 48 h, read-out: IC50 T. brucei brucei (48 h).
The mark [6] stands for this setting: 72 h, read-out: IC50 T. brucei brucei (72 h).
[7] abbreviates: progress curves, inhibitor 0-16.7 μM (Figure 6).

Where “and” joins values, the source holds several entries; their conditions need not be identical. Equal values may be shown once. Read-outs that look alike come from different tables or passages of the source.

Chain of rhodesain (Q95PM0 entry or part of it): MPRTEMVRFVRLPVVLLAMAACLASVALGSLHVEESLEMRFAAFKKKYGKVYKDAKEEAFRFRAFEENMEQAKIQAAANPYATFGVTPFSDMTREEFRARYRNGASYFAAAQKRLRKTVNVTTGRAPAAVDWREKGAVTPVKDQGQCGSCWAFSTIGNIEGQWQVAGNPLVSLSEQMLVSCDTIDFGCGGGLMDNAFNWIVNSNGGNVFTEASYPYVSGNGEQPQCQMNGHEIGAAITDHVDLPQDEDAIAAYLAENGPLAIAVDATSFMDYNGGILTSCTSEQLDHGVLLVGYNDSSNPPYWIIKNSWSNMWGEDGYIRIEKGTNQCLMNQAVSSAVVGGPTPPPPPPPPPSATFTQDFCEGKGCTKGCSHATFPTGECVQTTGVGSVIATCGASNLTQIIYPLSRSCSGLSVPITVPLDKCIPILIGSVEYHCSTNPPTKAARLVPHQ
Chain of cathepsin L (P07711 114-333, species assumed): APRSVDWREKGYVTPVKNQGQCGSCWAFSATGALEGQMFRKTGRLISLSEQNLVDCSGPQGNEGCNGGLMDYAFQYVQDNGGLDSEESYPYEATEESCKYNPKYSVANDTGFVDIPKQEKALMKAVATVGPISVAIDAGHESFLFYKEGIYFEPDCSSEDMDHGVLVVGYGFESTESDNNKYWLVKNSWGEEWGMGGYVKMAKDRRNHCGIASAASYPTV

The IC50 is the concentration that inhibits the measured activity by half. Turning to `COc1cc(C)c(C(=O)NC2C(C)OC(OC3CC(C)=CC4C3CC(C)C3/C(C)=C\CC/C(C)=C/C5(C)C=C(C(=O)O)C(C)CC56OC(=O)C(=C6O)C(=O)C43C)C(O)C2(C)O)c(O)c1` (stereo not drawn) [Compound 1, Tetromycin 1], the 50% inhibitory concentration (IC50) was greater than 100 µM in data set [1], 29.3 µM in data set [3] (setting [5]) and 31.7 µM in [3] (setting [6]). Besides, the IC50 at 24 h in data set [2] (293T kidney epithelial cells) is greater than 100 µM.

`COc1cc(C)c(C(=O)OC2C(C)OC(OC3CC(C)=CC4C3CC(C)C3/C(C)=C\CC/C(C)=C/C5(C)C=C(C(=O)O)C(C)CC56OC(=O)C(=C6O)C(=O)C43C)C(O)C2O)c(OC)c1` (stereo not drawn) [Compound 2, Tetromycin 2]: the figures for the IC50 in data set [1], in [3] (setting [5]) and in [3] (setting [6]) were greater than 100 µM, 45.4 µM and 80.3 µM, respectively. Moreover, in [2] (293T kidney epithelial cells), the IC50 at 24 h was greater than 100 µM.

With `COc1cc(O)cc(C)c1C(=O)OC1C(C)OC(OC2CC=C(C)C3C2CC(C)C2/C(C)=C\CC/C(C)=C/C4C=C(C(=O)O)C(C)CC45OC(=O)C(=C5O)C(=O)C32C)C(O)C1O` (stereo not drawn) [Compound 3, Tetromycin 3], the “ki (rate constant of inhibition) rhodesain” value at rhodesain (Figure 8, data from two independent assays) worked out at 0.042 min⁻¹. For the same molecule, the Ki was found to be 2.1 ± 0.9 µM on rhodesain, 0.57 ± 0.04 µM at cathepsin B, 1.65 ± 0.25 µM at falcipain-2 and 15 ± 1.95 µM at cathepsin L. Further, at rhodesain, the “RD k2nd” value was 36,600 ± 1590 M^−1 min^−1. The half-maximal inhibitory concentration (IC50) in data set [1] stood at 36.8 µM; in data set [3] (setting [5]), 26.9 µM; in data set [3] (setting [6]), 30.4 µM. In addition, the “FP k2nd” value on falcipain-2 was found to be 617 ± 9 M⁻¹ min⁻¹. The same molecule came in with an IC50 at 24 h in data set [2] (293T kidney epithelial cells) of 33.4 µM. Besides, the “CL k2nd” value at cathepsin L is given as 14,977 ± 2005 M^−1 min^−1.

On to `COc1cc(O)cc(C)c1C(=O)OC1C(C)OC(OC2CC(C)=CC3C2CC(C)C2/C(C)=C\CC/C(C)=C/C4(C)C=C(C(=O)O)C(C)CC45OC(=O)C(=C5O)C(=O)C32C)C(O)C1O` (stereo not drawn) [Compound 4, Tetromycin 4], for which the Ki on rhodesain is 4 ± 0.3 µM; on cathepsin B, 1.6 ± 0.1 µM; on falcipain-2, 3.1 ± 0.2 µM; at SARS-CoV PL^pro it was 40 ± 6.5 µM; at cathepsin L, 22.4 ± 0.8 µM. Moreover, on rhodesain, the “RD k2nd” value was determined as 8354 ± 1562 M⁻¹ min⁻¹. In addition, the figures for the IC50 in data set [1], in data set [3] (setting [5]) and in [3] (setting [6]) were greater than 100 µM, 35.9 µM and 41.6 µM, respectively. Also, the “FP k2nd” value on falcipain-2 is 1836 ± 108 M⁻¹ min⁻¹. In data set [2] (293T kidney epithelial cells), this molecule displayed an IC50 at 24 h of 58.6 µM. In addition, the “CL k2nd” value at cathepsin L is reported as 14,700 ± 1000 M^−1 min^−1.

Consider `CC1=CC2(C)/C=C(\C)CC/C=C(/C)C3C(C)=CC4C(O)CCC(C)C4C3(C)C(=O)C3=C(O)C2(CC1C)OC3=O` (stereo not drawn) [Compound 5, Tetromycin B], for which the “mode of inhibition with respect to the substrate, rhodesain” value at rhodesain (Ki determined at three different substrate concentrations) was “competitive inhibition”. Besides, the “time dependence of inhibition, rhodesain” value at rhodesain (setting [7]) is given as “time-dependent inhibition”. The Ki on rhodesain is 0.62 ± 0.03 µM; on cathepsin B, 1.5 µM and 1.59 µM; on falcipain-2, 1.42 ± 0.01 µM; on SARS-CoV PL^pro, 69.6 ± 7.2 µM; on cathepsin L it was 32.5 ± 0.05 µM. For the same molecule, at rhodesain, the “RD k2nd” value is 14,539 ± 1949 M^−1 min^−1. Moreover, the IC50 was greater than 100 µM in [1], 30.9 µM in [3] (setting [5]) and 34.2 µM in [3] (setting [6]). The “time dependence of inhibition, cathepsin B” value at cathepsin B (setting [7]) is reported as “non-time dependent inhibition”. For the same molecule, the IC50 at 24 h in [4] worked out at 20.2 µM; in data set [2], 71.8 µM. In addition, on falcipain-2, the “FP k2nd” value was 15,540 ± 1295 M^−1 min^−1. Further, the “CL k2nd” value on cathepsin L was found to be 1576 ± 413 M⁻¹ min⁻¹.
